What was measured:
ACHN shVHL = assay: RCC panel sensitivity (Table 2); format: cell-based; conditions: VHL silenced
ASK1 = molecular target: T1, ASK1 (Homo sapiens, UniProt Q99683); assay: Kinase Profiler; format: biochemical; conditions: STF-31 10 μM
T1 construct: purchased Millipore (Kinase Profiler service)
Method: (§1) Cell Culture and Reagents. All cells were grown in DMEM+10% FCS. ACHN and ACHN shVHL were a kind gift from George V. Thomas (UCLA). HIF overexpressing clones were described previously (Sutphin et al., Cancer Res, 67:5896-5905 (2007)). Transfection of RNA oligos were performed with DnarmaFECT Reagent 1 (Dharmcon), according to manufacturer's directions. ON-TARGETplus SMART pools against HIF-1 R/ARNT were purchased from Dharmacon. Inducible shRNAmir to GLUT1 was purchased from Open Biosystems. GLUT1 was detected with anti-GLUT1 antibody from NeoMarkers/LabVision/Fisher. For immunofluorescent studies, GLUT1, GLUT2, and GLUT3 antibodies were purchased from R&D. Pyruvate/lactate levels and hexokinase activity were both measured by fluorometric assay (BioVision and Sigma-Aldrich, respectively). ATP levels were measured by bioluminescence assay (ATP Determination Kit from Molecular Probes/Invitrogen). In vitro kinase activities were performed by Millipore Kinase Profiler.

Aurora-A = molecular target: T2, Aurora-A (Homo sapiens, UniProt O14965); assay: Kinase Profiler; format: biochemical; conditions: STF-31 10 μM
T2 construct: purchased Millipore (Kinase Profiler service)
T2 sequence (O14965 whole entry): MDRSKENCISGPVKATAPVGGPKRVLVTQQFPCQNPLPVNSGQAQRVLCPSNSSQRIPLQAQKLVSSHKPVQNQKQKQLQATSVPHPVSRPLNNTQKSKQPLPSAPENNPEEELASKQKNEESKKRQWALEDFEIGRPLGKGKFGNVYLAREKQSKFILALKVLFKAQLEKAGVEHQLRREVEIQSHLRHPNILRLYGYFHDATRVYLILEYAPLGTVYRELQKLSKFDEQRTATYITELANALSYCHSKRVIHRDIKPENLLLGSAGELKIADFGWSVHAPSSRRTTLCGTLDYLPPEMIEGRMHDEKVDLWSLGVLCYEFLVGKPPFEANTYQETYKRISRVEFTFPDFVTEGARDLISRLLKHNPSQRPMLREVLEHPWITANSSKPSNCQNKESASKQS
Method: as §1

Axl = molecular target: T3, Axl (Homo sapiens, UniProt P30530); assay: Kinase Profiler; format: biochemical; conditions: STF-31 10 μM
T3 construct: purchased Millipore (Kinase Profiler service)
Method: as §1

CDK1/cyclinB = molecular target: T4, CDK1/cyclinB (Homo sapiens, UniProt P06493); assay: Kinase Profiler; format: biochemical; conditions: STF-31 10 μM
T4 construct: purchased Millipore (Kinase Profiler service)
Method: as §1

CDK6/cyclinD3 = molecular target: T5, CDK6/cyclinD3 (Homo sapiens, UniProt Q00534); assay: Kinase Profiler; format: biochemical; conditions: STF-31 10 μM
T5 construct: purchased Millipore (Kinase Profiler service)
T5 sequence (Q00534 whole entry, species assumed): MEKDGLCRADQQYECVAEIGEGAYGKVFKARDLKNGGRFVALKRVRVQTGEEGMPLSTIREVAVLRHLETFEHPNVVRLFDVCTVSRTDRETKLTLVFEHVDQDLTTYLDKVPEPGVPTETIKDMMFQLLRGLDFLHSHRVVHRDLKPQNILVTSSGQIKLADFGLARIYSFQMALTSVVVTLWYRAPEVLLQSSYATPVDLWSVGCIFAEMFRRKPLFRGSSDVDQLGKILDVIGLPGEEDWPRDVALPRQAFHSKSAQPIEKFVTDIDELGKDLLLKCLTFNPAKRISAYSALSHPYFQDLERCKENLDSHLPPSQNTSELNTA
T5 sequence (P30281 whole entry partner, species assumed): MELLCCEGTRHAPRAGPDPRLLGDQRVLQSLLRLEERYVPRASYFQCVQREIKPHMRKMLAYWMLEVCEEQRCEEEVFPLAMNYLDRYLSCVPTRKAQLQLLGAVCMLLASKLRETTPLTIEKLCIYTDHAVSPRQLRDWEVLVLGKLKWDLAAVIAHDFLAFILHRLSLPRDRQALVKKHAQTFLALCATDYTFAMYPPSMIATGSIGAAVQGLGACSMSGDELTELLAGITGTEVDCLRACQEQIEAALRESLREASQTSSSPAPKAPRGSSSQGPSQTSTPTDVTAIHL
Method: as §1

CHK1 = molecular target: T6, CHK1 (Homo sapiens, UniProt O14757); assay: Kinase Profiler; format: biochemical; conditions: STF-31 10 μM
T6 construct: purchased Millipore (Kinase Profiler service)
Method: as §1

CK1γ1 = molecular target: T7, CK1γ1 (Homo sapiens, UniProt Q9HCP0); assay: Kinase Profiler; format: biochemical; conditions: STF-31 10 μM
T7 construct: purchased Millipore (Kinase Profiler service)
Method: as §1

CSK = molecular target: T8, CSK (Homo sapiens, UniProt P41240); assay: Kinase Profiler; format: biochemical; conditions: STF-31 10 μM
T8 construct: purchased Millipore (Kinase Profiler service)
T8 sequence (P41240 whole entry, species assumed): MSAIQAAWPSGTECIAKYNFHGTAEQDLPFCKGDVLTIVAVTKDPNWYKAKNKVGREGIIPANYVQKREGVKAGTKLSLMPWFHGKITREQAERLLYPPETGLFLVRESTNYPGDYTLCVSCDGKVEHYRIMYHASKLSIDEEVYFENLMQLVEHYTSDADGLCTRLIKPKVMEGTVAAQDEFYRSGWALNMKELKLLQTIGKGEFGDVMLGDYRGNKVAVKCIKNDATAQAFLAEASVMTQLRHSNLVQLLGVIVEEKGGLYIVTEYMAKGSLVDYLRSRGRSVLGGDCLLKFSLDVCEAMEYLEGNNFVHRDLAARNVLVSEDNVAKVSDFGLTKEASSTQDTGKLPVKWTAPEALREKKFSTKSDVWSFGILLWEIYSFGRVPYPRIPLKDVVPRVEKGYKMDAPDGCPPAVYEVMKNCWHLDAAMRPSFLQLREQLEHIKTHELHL
Method: as §1

DAPK1 = molecular target: T9, DAPK1 (Homo sapiens, UniProt P53355); assay: Kinase Profiler; format: biochemical; conditions: STF-31 10 μM
T9 construct: purchased Millipore (Kinase Profiler service)
Method: as §1

EphA1 = molecular target: T10, EphA1 (Homo sapiens, UniProt P21709); assay: Kinase Profiler; format: biochemical; conditions: STF-31 10 μM
T10 construct: purchased Millipore (Kinase Profiler service)
Method: as §1

FGFR1 = molecular target: T11, FGFR1 (Homo sapiens, UniProt P11362); assay: Kinase Profiler; format: biochemical; conditions: STF-31 10 μM
T11 construct: purchased Millipore Kinase Profiler
Method: as §1

Flt3 = molecular target: T12, Flt3 (Homo sapiens, UniProt P36888); assay: Kinase Profiler; format: biochemical; conditions: STF-31 10 μM
T12 construct: purchased Millipore Kinase Profiler
Method: as §1

GSK3α = molecular target: T13, GSK3α (Homo sapiens, UniProt P49840); assay: Kinase Profiler; format: biochemical; conditions: STF-31 10 μM
T13 construct: purchased Millipore Kinase Profiler
Method: as §1

Hck = molecular target: T14, Hck (Homo sapiens, UniProt P08631); assay: Kinase Profiler; format: biochemical; conditions: STF-31 10 μM
T14 construct: purchased Millipore Kinase Profiler
T14 sequence (P08631 whole entry, species assumed): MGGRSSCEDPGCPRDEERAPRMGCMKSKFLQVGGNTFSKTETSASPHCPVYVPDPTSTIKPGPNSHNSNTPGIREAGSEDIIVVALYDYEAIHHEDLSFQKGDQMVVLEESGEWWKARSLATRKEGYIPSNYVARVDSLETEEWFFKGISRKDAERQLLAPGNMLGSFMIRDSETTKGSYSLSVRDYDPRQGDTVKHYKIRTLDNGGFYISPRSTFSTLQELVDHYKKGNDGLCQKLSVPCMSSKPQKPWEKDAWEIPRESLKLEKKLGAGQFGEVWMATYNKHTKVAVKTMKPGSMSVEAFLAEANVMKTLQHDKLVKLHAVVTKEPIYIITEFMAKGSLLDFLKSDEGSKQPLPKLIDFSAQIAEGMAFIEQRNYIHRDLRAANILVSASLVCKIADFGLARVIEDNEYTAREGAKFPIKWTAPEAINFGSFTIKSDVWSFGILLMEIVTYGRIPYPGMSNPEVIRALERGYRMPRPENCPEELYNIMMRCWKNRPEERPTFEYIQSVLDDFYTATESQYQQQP
Method: as §1

IKKα = molecular target: T15, IKKα (Homo sapiens, UniProt O15111); assay: Kinase Profiler; format: biochemical; conditions: STF-31 10 μM
T15 construct: purchased Millipore Kinase Profiler
T15 sequence (O15111 whole entry, species assumed): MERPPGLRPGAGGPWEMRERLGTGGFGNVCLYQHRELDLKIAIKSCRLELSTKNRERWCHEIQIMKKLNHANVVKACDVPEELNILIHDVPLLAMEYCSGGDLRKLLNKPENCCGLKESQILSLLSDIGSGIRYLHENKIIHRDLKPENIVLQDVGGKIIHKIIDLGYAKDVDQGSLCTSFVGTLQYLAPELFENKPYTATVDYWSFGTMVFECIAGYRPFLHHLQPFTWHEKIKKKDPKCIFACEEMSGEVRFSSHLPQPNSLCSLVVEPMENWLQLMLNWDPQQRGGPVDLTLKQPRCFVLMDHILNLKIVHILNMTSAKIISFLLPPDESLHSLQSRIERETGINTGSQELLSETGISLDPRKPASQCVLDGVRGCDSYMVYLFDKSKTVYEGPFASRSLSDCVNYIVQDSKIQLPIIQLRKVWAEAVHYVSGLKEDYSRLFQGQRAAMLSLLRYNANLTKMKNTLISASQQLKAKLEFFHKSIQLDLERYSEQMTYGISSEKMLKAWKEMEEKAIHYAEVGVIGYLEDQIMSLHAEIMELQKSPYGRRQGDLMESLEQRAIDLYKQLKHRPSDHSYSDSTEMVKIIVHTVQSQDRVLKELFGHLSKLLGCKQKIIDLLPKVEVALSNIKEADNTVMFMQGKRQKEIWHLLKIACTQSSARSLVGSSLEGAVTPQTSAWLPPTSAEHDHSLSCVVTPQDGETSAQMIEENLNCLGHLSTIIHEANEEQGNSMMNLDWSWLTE
Method: as §1

IR = molecular target: T16, IR (Homo sapiens, UniProt P06213); assay: Kinase Profiler; format: biochemical; conditions: STF-31 10 μM
T16 construct: purchased Millipore Kinase Profiler
T16 sequence (P06213 28-1382): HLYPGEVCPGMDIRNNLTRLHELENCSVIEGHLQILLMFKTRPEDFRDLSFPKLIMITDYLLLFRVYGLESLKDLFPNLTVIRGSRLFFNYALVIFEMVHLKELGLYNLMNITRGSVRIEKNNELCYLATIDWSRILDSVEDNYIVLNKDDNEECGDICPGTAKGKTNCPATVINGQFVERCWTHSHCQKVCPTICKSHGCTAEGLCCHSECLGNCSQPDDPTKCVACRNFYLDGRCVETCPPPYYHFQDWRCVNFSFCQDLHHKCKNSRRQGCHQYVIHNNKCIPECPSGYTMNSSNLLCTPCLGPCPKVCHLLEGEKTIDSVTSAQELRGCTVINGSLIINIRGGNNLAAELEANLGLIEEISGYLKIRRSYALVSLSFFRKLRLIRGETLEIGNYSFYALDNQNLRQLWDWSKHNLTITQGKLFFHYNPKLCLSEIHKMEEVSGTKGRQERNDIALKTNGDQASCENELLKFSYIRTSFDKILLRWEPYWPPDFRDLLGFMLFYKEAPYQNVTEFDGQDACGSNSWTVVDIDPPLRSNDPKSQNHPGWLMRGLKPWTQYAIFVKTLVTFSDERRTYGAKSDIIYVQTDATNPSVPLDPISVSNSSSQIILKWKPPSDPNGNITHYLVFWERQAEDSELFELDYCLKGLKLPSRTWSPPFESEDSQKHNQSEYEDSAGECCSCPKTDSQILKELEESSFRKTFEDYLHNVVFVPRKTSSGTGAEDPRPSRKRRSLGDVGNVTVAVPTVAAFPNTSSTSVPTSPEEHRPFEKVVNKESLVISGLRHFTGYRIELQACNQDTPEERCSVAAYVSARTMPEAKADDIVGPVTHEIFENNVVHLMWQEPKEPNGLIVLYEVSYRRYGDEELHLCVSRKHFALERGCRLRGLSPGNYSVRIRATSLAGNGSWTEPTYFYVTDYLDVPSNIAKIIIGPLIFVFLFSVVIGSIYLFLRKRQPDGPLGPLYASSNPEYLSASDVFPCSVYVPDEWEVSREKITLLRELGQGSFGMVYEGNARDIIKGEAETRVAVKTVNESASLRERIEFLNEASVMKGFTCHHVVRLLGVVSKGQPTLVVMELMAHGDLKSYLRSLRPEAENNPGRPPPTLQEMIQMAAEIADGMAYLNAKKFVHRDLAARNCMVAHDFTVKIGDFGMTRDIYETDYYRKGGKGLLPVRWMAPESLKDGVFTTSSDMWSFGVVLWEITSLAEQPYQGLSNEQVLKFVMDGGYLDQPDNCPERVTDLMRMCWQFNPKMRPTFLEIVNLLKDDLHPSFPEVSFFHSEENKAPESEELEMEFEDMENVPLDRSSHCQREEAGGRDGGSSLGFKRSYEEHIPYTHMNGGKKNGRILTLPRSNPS
Method: as §1

JNK1α1 = molecular target: T17, JNK1α1 (Homo sapiens, UniProt P45983); assay: Kinase Profiler; format: biochemical; conditions: STF-31 10 μM
T17 construct: purchased Millipore Kinase Profiler
Method: as §1

MEK1 = molecular target: T18, MEK1 (Homo sapiens, UniProt Q02750); assay: Kinase Profiler; format: biochemical; conditions: STF-31 10 μM
T18 construct: purchased Millipore Kinase Profiler
Method: as §1

MKK4 = molecular target: T19, MKK4 (Mus musculus, UniProt P47809); assay: Kinase Profiler; format: biochemical; conditions: STF-31 10 μM
T19 construct: purchased Millipore Kinase Profiler
Method: as §1

MSK1 = molecular target: T20, MSK1 (Homo sapiens, UniProt O75582); assay: Kinase Profiler; format: biochemical; conditions: STF-31 10 μM
T20 construct: purchased Millipore Kinase Profiler
Method: as §1

Met = molecular target: T21, Met (Homo sapiens, UniProt P08581); assay: Kinase Profiler; format: biochemical; conditions: STF-31 10 μM
T21 construct: purchased Millipore Kinase Profiler
Method: as §1

PDK1 = molecular target: T22, PDK1 (Homo sapiens, UniProt O15530); assay: Kinase Profiler; format: biochemical; conditions: STF-31 10 μM
T22 construct: purchased Millipore Kinase Profiler
Method: as §1

PKA = molecular target: T23, PKA (Homo sapiens, UniProt P17612); assay: Kinase Profiler; format: biochemical; conditions: STF-31 10 μM
T23 construct: purchased Millipore Kinase Profiler
Method: as §1

Pim-2 = molecular target: T24, Pim-2 (Homo sapiens, UniProt Q9P1W9); assay: Kinase Profiler; format: biochemical; conditions: STF-31 10 μM
T24 construct: purchased Millipore Kinase Profiler
Method: as §1

ROCK-I = molecular target: T25, ROCK-I (Homo sapiens, UniProt Q13464); assay: Kinase Profiler; format: biochemical; conditions: STF-31 10 μM
T25 construct: purchased Millipore (Kinase Profiler service)
Method: as §1

Rsk1 = molecular target: T26, Rsk1 (Homo sapiens, UniProt Q15418); assay: Kinase Profiler; format: biochemical; conditions: STF-31 10 μM
T26 construct: purchased Millipore (Kinase Profiler service)
Method: as §1

SAPK2a = molecular target: T27, SAPK2a (Homo sapiens, UniProt Q16539); assay: Kinase Profiler; format: biochemical; conditions: STF-31 10 μM
T27 construct: purchased Millipore (Kinase Profiler service)
Method: as §1

Syk = molecular target: T28, Syk (Homo sapiens, UniProt P43405); assay: Kinase Profiler; format: biochemical; conditions: STF-31 10 μM
T28 construct: purchased Millipore (Kinase Profiler service)
Method: as §1

Tie2 = molecular target: T29, Tie2 (Homo sapiens, UniProt Q02763); assay: Kinase Profiler; format: biochemical; conditions: STF-31 10 μM
T29 construct: purchased Millipore (Kinase Profiler service)
Method: as §1

TrkA = molecular target: T30, TrkA (Homo sapiens, UniProt P04629); assay: Kinase Profiler; format: biochemical; conditions: STF-31 10 μM
T30 construct: purchased Millipore (Kinase Profiler service)
Method: as §1

c-RAF = molecular target: T31, c-RAF (Homo sapiens, UniProt P04049); assay: Kinase Profiler; format: biochemical; conditions: STF-31 10 μM
T31 construct: purchased Millipore (Kinase Profiler service)
T31 sequence (P04049 whole entry, species assumed): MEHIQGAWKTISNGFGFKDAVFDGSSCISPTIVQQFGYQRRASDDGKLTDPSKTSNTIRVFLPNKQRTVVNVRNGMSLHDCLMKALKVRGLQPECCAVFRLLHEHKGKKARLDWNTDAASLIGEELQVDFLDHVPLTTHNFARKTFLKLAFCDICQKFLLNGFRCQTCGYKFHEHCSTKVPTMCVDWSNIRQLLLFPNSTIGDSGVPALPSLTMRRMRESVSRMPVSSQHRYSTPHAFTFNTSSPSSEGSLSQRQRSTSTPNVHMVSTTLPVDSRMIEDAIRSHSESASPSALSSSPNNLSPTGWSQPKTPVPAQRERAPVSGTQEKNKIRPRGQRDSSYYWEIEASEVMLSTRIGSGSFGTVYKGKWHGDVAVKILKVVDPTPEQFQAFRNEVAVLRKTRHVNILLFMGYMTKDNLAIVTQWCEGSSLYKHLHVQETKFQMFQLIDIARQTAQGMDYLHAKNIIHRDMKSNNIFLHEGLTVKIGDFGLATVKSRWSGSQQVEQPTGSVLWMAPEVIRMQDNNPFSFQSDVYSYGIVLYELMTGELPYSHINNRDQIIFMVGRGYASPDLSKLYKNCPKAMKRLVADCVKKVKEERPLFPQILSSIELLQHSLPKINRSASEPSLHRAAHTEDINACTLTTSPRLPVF
Method: as §1

cSRC = molecular target: T32, cSRC (Homo sapiens, UniProt P12931); assay: Kinase Profiler; format: biochemical; conditions: STF-31 10 μM
T32 construct: purchased Millipore (Kinase Profiler service)
Method: as §1

mTOR = molecular target: T33, mTOR (Homo sapiens, UniProt P42345); assay: Kinase Profiler; format: biochemical; conditions: STF-31 10 μM
T33 construct: purchased Millipore Kinase Profiler
Method: as §1

Q: What does the source list for `CC(C)(C)c1ccc(S(=O)(=O)NCc2ccc(C(=O)Nc3cccnc3)cc2)cc1` [STF-31]?
A: 3-series sensitivity (sensitivity to STF-31) (ACHN shVHL): Yes; Kinase response to STF-31 (ASK1): 129; Kinase response to STF-31 (Aurora-A): 108; Kinase response to STF-31 (Axl): 87; Kinase response to STF-31 (CDK1/cyclinB): 96; Kinase response to STF-31 (CDK6/cyclinD3): 105; Kinase response to STF-31 (CHK1): 114; Kinase response to STF-31 (CK1γ1): 85; Kinase response to STF-31 (CSK): 99; Kinase response to STF-31 (DAPK1): 92; Kinase response to STF-31 (EphA1): 102; Kinase response to STF-31 (FGFR1): 107; Kinase response to STF-31 (Flt3): 111; Kinase response to STF-31 (GSK3α): 134; Kinase response to STF-31 (Hck): 84; Kinase response to STF-31 (IKKα): 102; Kinase response to STF-31 (IR): 121; Kinase response to STF-31 (JNK1α1): 101; Kinase response to STF-31 (MEK1): 99; Kinase response to STF-31 (MKK4): 128; Kinase response to STF-31 (MSK1): 107; Kinase response to STF-31 (Met): 105; Kinase response to STF-31 (PDK1): 105; Kinase response to STF-31 (PKA): 96; Kinase response to STF-31 (Pim-2): 112; Kinase response to STF-31 (ROCK-I): 74; Kinase response to STF-31 (Rsk1): 120; Kinase response to STF-31 (SAPK2a): 127; Kinase response to STF-31 (Syk): 94; Kinase response to STF-31 (Tie2): 111; Kinase response to STF-31 (TrkA): 124; Kinase response to STF-31 (c-RAF): 103; Kinase response to STF-31 (cSRC): 104; Kinase response to STF-31 (mTOR): 101

From patent publication US9079859B2, “Synthetic lethal targeting of glucose transport” (AUCKLAND UNISERVICES LIMITED, priority 2011, dated 2015)
